Where a chain is given by its changes, count along the chain named.
Columns and labels:
Experiment in all cases: E. coli hemG growth inhibition by herbicide, AtPPO1 variant
Format in all cases: cell-based
Conditions in all cases: read-out: percentage growth inhibition
[1] = target: T1, AtPPO1 D448H (Arabidopsis thaliana, UniProt P55826, D448H)
T1 construct: expressed in transfected cells; host or cells: E. coli BL21(DE3) hemG (pET24a, T7 promoter)
T1 sequence (P55826 35-537 D448H): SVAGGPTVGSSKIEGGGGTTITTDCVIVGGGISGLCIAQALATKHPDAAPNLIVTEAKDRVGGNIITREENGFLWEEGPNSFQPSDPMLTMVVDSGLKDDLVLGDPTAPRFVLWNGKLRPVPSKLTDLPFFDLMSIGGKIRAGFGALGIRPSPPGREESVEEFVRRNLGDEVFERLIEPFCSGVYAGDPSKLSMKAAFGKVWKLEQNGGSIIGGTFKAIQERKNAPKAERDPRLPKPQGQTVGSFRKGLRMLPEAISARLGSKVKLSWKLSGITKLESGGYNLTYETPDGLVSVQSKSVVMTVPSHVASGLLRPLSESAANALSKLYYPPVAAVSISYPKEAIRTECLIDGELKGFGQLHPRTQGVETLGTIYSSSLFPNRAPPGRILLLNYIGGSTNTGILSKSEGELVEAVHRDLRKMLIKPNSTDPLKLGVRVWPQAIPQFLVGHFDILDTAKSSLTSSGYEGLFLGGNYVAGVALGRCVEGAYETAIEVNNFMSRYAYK
From the text: (§1) A pET24a plasmid containing a DNA sequence encoding a variant of PPO1 derived from Arabidopsis thaliana (AtPPO1), codon-optimised for expression in E. coli and under control of a T7 promoter, was synthesised by Twist Bioscience (SEQ ID NO:3). This plasmid was used as the basis of a Site Saturation Variant Library (SSVL) that substituted the codons at 352 amino acid positions for codons that encoded one of the other 19 amino acids, or removed the codon altogether, resulting in a translation product with a deletion at that position.
(§2) The SSVL was batch-transformed by electroporation into an E. coli BL21(DE3) hemG strain with the hemG gene replaced by CmR conferring resistance to chloramphenicol and spread onto LA supplemented with 50 μg/mL kanamycin, 25 μg/mL chloramphenicol and 20 μg/mL hematin. Each batch consisted of all the plasmids that contained variants at two sites.
(§3) Colonies from batch transformations were inoculated into 500 μL of Terrific broth supplemented with 50 μg/mL kanamycin, 25 μg/mL chloramphenicol and 20 μg/mL hematin in 96-deepwell blocks. Cultures were grown for 24 hours at 37° C. with shaking at 250 rpm.
(§4) Overnight cultures were centrifuged and the cell pellets resuspended with 500 μL of Terrific broth. The resuspended cultures were used at a ratio of 1:100 to inoculate a fresh 96-deepwell block containing 500 μL of Terrific broth supplemented with 0.1 mM IPTG, 50 μg/mL kanamycin, 25 μg/mL chloramphenicol and 6.25 ppm of herbicide […] or E or 0.78 ppm herbicide B or DMSO. Assay cultures were grown for 24 hours at 37° C. with shaking at 250 rpm with the OD600 being measured at 24 hours post inoculation. Strains that grew in both DMSO and herbicide were determined to be herbicide tolerant with the percentage of growth inhibition being calculated as below: […]

[2] = target: T2, AtPPO1 G510N (Arabidopsis thaliana, UniProt P55826, G510N)
T2 construct: expressed in transfected cells; host or cells: E. coli BL21(DE3) hemG, pET24a plasmid
T2 sequence (P55826 35-537 G510N): T1 sequence (P55826 35-537 D448H) with H414D, G476N
From the text: as §1, §2, §3, §4

[3] = target: T3, AtPPO1 T461Q (Arabidopsis thaliana, UniProt P55826, T461Q)
T3 construct: expressed in transfected cells; host or cells: E. coli BL21(DE3) hemG, pET24a plasmid
T3 sequence (P55826 35-537 T461Q): T1 sequence (P55826 35-537 D448H) with H414D, T427Q
From the text: as §1, §2, §3, §4

[4] = target: T4, AtPPO1 V127I (Arabidopsis thaliana, UniProt P55826, V127I)
T4 construct: expressed in transfected cells; host or cells: E. coli BL21(DE3) hemG (hemG replaced by CmR), pET24a plasmid
T4 sequence (P55826 35-537 V127I): T1 sequence (P55826 35-537 D448H) with V93I, H414D
From the text: as §1, §2, §3, §4

Compound	inhibition at 6.25 ppm [1] [%]	inhibition at 6.25 ppm [2] [%]	inhibition at 6.25 ppm [3] [%]	inhibition at 6.25 ppm [4] [%]	inhibition at 0.78 ppm [1] [%]	inhibition at 0.78 ppm [2] [%]	inhibition at 0.78 ppm [3] [%]	inhibition at 0.78 ppm [4] [%]
CC(C)N(C)S(=O)(=O)NC(=O)c1cc(-n2c(=O)cc(C(F)(F)F)n(C)c2=O)c(F)cc1Cl [Herbicide E, saflufenacil]	57	70	35	69	–	–	–	–
C#CCN1C(=O)C(F)(F)Oc2cc(F)c(-n3c(=O)n(C)c(=S)n(C)c3=O)cc21 [Herbicide B, trifludimoxazin]	–	–	–	–	31	24	31	28
CCOC(=O)[C@]1(C)CC(c2cc(-n3c(=O)n(C)c(=S)n(C)c3=O)c(F)cc2Cl)=NO1 [Herbicide D, ethyl (5S)-3-[2-chloro-5-(3,5-dimethyl-2,6-dioxo-4-thioxo-1,3,5-triazinan-1-yl)-4-fluoro-phenyl]-5-methyl-4H-isoxazole-5-carboxylate]	26	31	22	23	–	–	–	–

From patent publication US20260297542A1, “HERBICIDE RESISTANT PLANTS” (SYNGENTA CROP PROTECTION AG, priority 2023, published 2026)
